# Results from US20230015308A1, “SUBSTITUTED THIAZOLE AROMATIC RING-BASED COMPOUND AND PREPARATION METHOD THEREFOR, HERBICIDAL COMPOSITION AND USE THEREOF” (QINGDAO KINGAGROOT CHEMICAL COMPOUND CO., LTD., priority 2019, published 2023).
# Tests used:
# Test in all cases: Weeding effect in post-emergence stage (greenhouse pot test)
# Type in all cases: in vivo
# Settings in all cases: 15 g a.i./ha, 3 weeks after application
# Veronica didyma Tenore = test system: Veronica didyma Tenore
# Description: (§1) The activity level criteria for plant damage (i.e., growth control rate) are as follows:
# (§2) Level 5: growth control rate is above 85%;
# (§3) Level 4: growth control rate is greater than or equal to 60% and less than 85%;
# (§4) Level 3: growth control rate is greater than or equal to 40% and less than 60%;
# (§5) Level 2: growth control rate is greater than or equal to 20% and less than 40%;
# (§6) Level 1: growth control rate is greater than or equal to 5% and less than 20%;
# (§7) Level 0: growth control rate is less than 5%.
# (§8) The above growth control rates are fresh weight control rates.
# (§9) Experiment on weeding effect in post-emergence stage:
# (§10) Monocotyledonous and dicotyledonous weed seeds (Descurainia sophia, Capsella bursa-pastoris, Abutilon theophrasti, Galium aparine, Stellaria media, Lithospermum arvense, Rorippa indica, Alopecurus aequalis, Alopecurus japonicus, Beckmannia syzigachne, Sclerochloa dura, Conyza Canadensis, Phleum paniculatum, Veronica didyma Tenore, Eleusine indica, Bromus japonicus, Aegilops tauschii, Phalaris arundinacea, Amaranthus retroflexus, Chenopodium album, Commelina communis, Sonchus arvensis, Convolvulus arvensis, Cirsium setosum, Solanum nigrum, Acalypha australis, Digitaria sanguinalis, Echinochloa crusgalli, Setaria viridis, Setaria glauca, Leptochloa chinensis, Monochoria vaginalis, Sagittaria trifolia, Scirpus juncoides, Cyperus rotundus, Cyperus iria, Cyperus difformis, Fimbristylis, Portulaca oleracea, Xanthium sibiricum, Pharbitis nil) and major crop seeds (wheat, corn, rice, soybean, cotton, oilseed rape, millet, sorghum, potato, sesame, ricinus) were placed in plastic pots filled with soil, then covered with 0.5-2 cm of soil, allowed to grow in a good greenhouse environment. After 2 weeks of sowing, the test plants were treated in the 2-3 leaf stage. The tested compounds of the present invention were respectively dissolved in acetone, then added with Tween 80 and 1.5 liter/ha of emulsifiable concentrate of methyl oleate as synergist, diluted with a certain amount of water to obtain a solution with a certain concentration, and sprayed with a spray tower onto the plants. After the application, the plants were cultured for 3 weeks in the greenhouse, and then the experimental results of the weeding were counted. The doses of the used compounds were 500, 250, 125, 60, 15 g a.i./ha, and the averages were obtained by repeating for three times.
# Abutilon theophrasti = test system: Abutilon theophrasti
# Description: as §1, §2, §3, §4, §5, §6, §7, §8, §9, §10
# Galium aparine = test system: Galium aparine
# Description: as §1, §2, §3, §4, §5, §6, §7, §8, §9, §10
# Alopecurus japonicus = test system: Alopecurus japonicus
# Description: as §1, §2, §3, §4, §5, §6, §7, §8, §9, §10
# Amaranthus retroflexus = test system: Amaranthus retroflexus
# Description: as §1, §2, §3, §4, §5, §6, §7, §8, §9, §10
# Digitaria sanguinalis = test system: Digitaria sanguinalis
# Description: as §1, §2, §3, §4, §5, §6, §7, §8, §9, §10
# Beckmannia syzigachne = test system: Beckmannia syzigachne
# Description: as §1, §2, §3, §4, §5, §6, §7, §8, §9, §10
# Setaria viridis = test system: Setaria viridis
# Description: as §1, §2, §3, §4, §5, §6, §7, §8, §9, §10
# Echinochloa crusgalli = test system: Echinochloa crusgalli
# Description: as §1, §2, §3, §4, §5, §6, §7, §8, §9, §10
SMILES,"Veronica didyma Tenore, activity level (fresh weight growth control rate) (Veronica didyma Tenore)","Abutilon theophrasti, activity level (fresh weight growth control rate) (Abutilon theophrasti)","Galium aparine, activity level (fresh weight growth control rate) (Galium aparine)","Alopecurus japonicus, activity level (fresh weight growth control rate) (Alopecurus japonicus)","Amaranthus retroflexus, activity level (fresh weight growth control rate) (Amaranthus retroflexus)","Digitaria sanguinalis, activity level (fresh weight growth control rate) (Digitaria sanguinalis)","Beckmannia syzigachne, activity level (fresh weight growth control rate) (Beckmannia syzigachne)","Setaria viridis, activity level (fresh weight growth control rate) (Setaria viridis)","Echinochloa crusgalli, activity level (fresh weight growth control rate) (Echinochloa crusgalli)"
CCOC(=O)c1cnc(-c2cc(-n3c(=O)cc(C(F)(F)F)n(C)c3=O)c(F)cc2Cl)s1 [1-2],5 (Level 5: growth control rate is above 85%),5 (Level 5: growth control rate is above 85%),5 (Level 5: growth control rate is above 85%),4 (Level 4: growth control rate is greater than or equal to 60% and less than 85%),5 (Level 5: growth control rate is above 85%),5 (Level 5: growth control rate is above 85%),4 (Level 4: growth control rate is greater than or equal to 60% and less than 85%),5 (Level 5: growth control rate is above 85%),5 (Level 5: growth control rate is above 85%)
C=CCOC(=O)c1cnc(-c2cc(-n3c(=O)cc(C(F)(F)F)n(C)c3=O)c(F)cc2Cl)s1 [1-10],5 (Level 5: growth control rate is above 85%),5 (Level 5: growth control rate is above 85%),5 (Level 5: growth control rate is above 85%),3 (Level 3: growth control rate is greater than or equal to 40% and less than 60%),5 (Level 5: growth control rate is above 85%),4 (Level 4: growth control rate is greater than or equal to 60% and less than 85%),3 (Level 3: growth control rate is greater than or equal to 40% and less than 60%),5 (Level 5: growth control rate is above 85%),5 (Level 5: growth control rate is above 85%)
C#CCOC(=O)c1cnc(-c2cc(-n3c(=O)cc(C(F)(F)F)n(C)c3=O)c(F)cc2Cl)s1 [1-12],5 (Level 5: growth control rate is above 85%),5 (Level 5: growth control rate is above 85%),5 (Level 5: growth control rate is above 85%),3 (Level 3: growth control rate is greater than or equal to 40% and less than 60%),5 (Level 5: growth control rate is above 85%),5 (Level 5: growth control rate is above 85%),3 (Level 3: growth control rate is greater than or equal to 40% and less than 60%),5 (Level 5: growth control rate is above 85%),5 (Level 5: growth control rate is above 85%)
Cn1c(C(F)(F)F)cc(=O)n(-c2cc(-c3ncc(C(=O)OCC4CCCO4)s3)c(Cl)cc2F)c1=O (stereo not drawn) [1-33],5 (Level 5: growth control rate is above 85%),5 (Level 5: growth control rate is above 85%),5 (Level 5: growth control rate is above 85%),3 (Level 3: growth control rate is greater than or equal to 40% and less than 60%),5 (Level 5: growth control rate is above 85%),5 (Level 5: growth control rate is above 85%),3 (Level 3: growth control rate is greater than or equal to 40% and less than 60%),5 (Level 5: growth control rate is above 85%),5 (Level 5: growth control rate is above 85%)
CCOC(=O)c1cnc(-c2cc(-n3c(=S)cc(C(F)(F)F)n(C)c3=O)c(F)cc2Cl)s1 [1-103],5 (Level 5: growth control rate is above 85%),5 (Level 5: growth control rate is above 85%),5 (Level 5: growth control rate is above 85%),4 (Level 4: growth control rate is greater than or equal to 60% and less than 85%),5 (Level 5: growth control rate is above 85%),5 (Level 5: growth control rate is above 85%),4 (Level 4: growth control rate is greater than or equal to 60% and less than 85%),5 (Level 5: growth control rate is above 85%),5 (Level 5: growth control rate is above 85%)
CCOC(=O)c1cnc(-c2nc(-n3c(=O)cc(C(F)(F)F)n(C)c3=O)c(F)cc2Cl)s1 [1-107],5 (Level 5: growth control rate is above 85%),5 (Level 5: growth control rate is above 85%),5 (Level 5: growth control rate is above 85%),5 (Level 5: growth control rate is above 85%),5 (Level 5: growth control rate is above 85%),5 (Level 5: growth control rate is above 85%),5 (Level 5: growth control rate is above 85%),5 (Level 5: growth control rate is above 85%),5 (Level 5: growth control rate is above 85%)
CCOC(=O)c1cnc(-c2cc(-n3c(=O)n(C)c(=S)n(C)c3=O)c(F)cc2Cl)s1 [1-113],5 (Level 5: growth control rate is above 85%),5 (Level 5: growth control rate is above 85%),5 (Level 5: growth control rate is above 85%),4 (Level 4: growth control rate is greater than or equal to 60% and less than 85%),5 (Level 5: growth control rate is above 85%),4 (Level 4: growth control rate is greater than or equal to 60% and less than 85%),4 (Level 4: growth control rate is greater than or equal to 60% and less than 85%),5 (Level 5: growth control rate is above 85%),5 (Level 5: growth control rate is above 85%)
CCOC(=O)c1cnc(-c2nc(-n3c(=O)n(C)c(=S)n(C)c3=O)c(F)cc2Cl)s1 [1-123],5 (Level 5: growth control rate is above 85%),5 (Level 5: growth control rate is above 85%),5 (Level 5: growth control rate is above 85%),5 (Level 5: growth control rate is above 85%),5 (Level 5: growth control rate is above 85%),5 (Level 5: growth control rate is above 85%),5 (Level 5: growth control rate is above 85%),5 (Level 5: growth control rate is above 85%),5 (Level 5: growth control rate is above 85%)
